In patent publication EP4603105A1, “PHARMACEUTICAL COMPOSITION CONTAINING CYCLIC COMPOUND HAVING SELECTIVE KRAS INHIBITORY EFFECT AGAINST HRAS AND NRAS” (CHUGAI SEIYAKU KABUSHIKI KAISHA, priority 2022, dated 2024):
Where a SMILES comes first, the peptide text is derived from it. Bridges are numbered along the chain shown (N, C = ends). [ ]: non-standard residue; d: D form. The star is where a group is joined. hPhe(3-Cl-4-CF3) = N[C@@H](CCc1ccc(C(F)(F)F)c(Cl)c1)C(=O)O; NPrPhe(4-CF3) = CCCN[C@@H](Cc1ccc(C(F)(F)F)cc1)C(=O)O; Pro(4-spirocPr) = O=C(O)[C@@H]1CC2(CC2)CN1; NMeGly(cPent) = CN[C@H](C(=O)O)C1CCCC1; NMeD = CN[C@@H](CC(=O)O)C(=O)O; NMeL = CN[C@@H](CC(C)C)C(=O)O; Morpholide = C1CN(*)CCO1; Ac5c = NC1(C(=O)O)CCCC1; Aze = O=C(O)[C@@H]1CCN1; Sar = CNCC(=O)O

Experiments:
[1] = target: GDP-bound KRAS wild-type protein (Homo sapiens, UniProt P01116); experiment: Binding to KRAS by surface plasmon resonance (SPR), dissociation constant KD
Summary of the method: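 Measured at 30°C: SPR with GDP-loaded, E. coli-expressed biotin-Avi RAS captured (~100–300 RU), ascending 75 s compound injections, HBS pH 7.4 with GDP, MgCl2, 4% DMSO. KD from 1:1 fit.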

[2] = test system: human lung cancer strain NCI-H441; type: cell-based
Summary of the method: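 Step one: dispense the test compound in serial DMSO dilutions. Step three: add the reagent and measure […].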

[3] = target: GDP-bound NRAS wild-type protein (Homo sapiens, UniProt P01111); experiment: Binding to NRAS by surface plasmon resonance (SPR), KD and KD ratio to KRAS
Summary of the method: (§1)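 Captured GDP-RAS (~100–300 RU) was exposed to increasing compound concentrations, 75 s per step, in running buffer with 10 µM GDP, 10 mM MgCl2 and 4% DMSO at pH 7.4.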

[4] = target: HRAS wild-type protein (Homo sapiens, UniProt P01112); experiment: Binding to HRAS by surface plasmon resonance (SPR), KD and KD ratio to KRAS
Summary of the method: as §1

[5] = ratio of KD for GDP-bound NRAS wild-type protein to KD for KRAS
[6] = ratio of KD for HRAS wild-type protein to KD for KRAS
[7] = Single Cycle Kinetics, 1:1 binding model
[8] = ratio of the KD value with respect to GDP-bound NRAS wild-type protein to the KD value with respect to KRAS
[9] = ratio of the KD value with respect to HRAS wild-type protein to the KD value with respect to KRAS

GDP-bound NRAS wild-type protein, sequence (P01111 whole entry): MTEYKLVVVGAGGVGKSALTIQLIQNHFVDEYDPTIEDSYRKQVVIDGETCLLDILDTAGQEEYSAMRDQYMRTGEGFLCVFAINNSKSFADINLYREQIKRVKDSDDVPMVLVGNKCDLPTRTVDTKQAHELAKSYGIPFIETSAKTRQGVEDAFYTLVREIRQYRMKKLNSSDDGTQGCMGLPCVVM
HRAS wild-type protein, sequence (P01112 whole entry): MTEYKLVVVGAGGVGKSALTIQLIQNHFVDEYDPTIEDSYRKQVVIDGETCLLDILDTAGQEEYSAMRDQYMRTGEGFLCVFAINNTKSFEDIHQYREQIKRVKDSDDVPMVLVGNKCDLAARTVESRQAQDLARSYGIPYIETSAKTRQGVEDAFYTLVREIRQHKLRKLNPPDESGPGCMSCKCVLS
GDP-bound KRAS wild-type protein, sequence (P01116 1-188 isoform P01116-2): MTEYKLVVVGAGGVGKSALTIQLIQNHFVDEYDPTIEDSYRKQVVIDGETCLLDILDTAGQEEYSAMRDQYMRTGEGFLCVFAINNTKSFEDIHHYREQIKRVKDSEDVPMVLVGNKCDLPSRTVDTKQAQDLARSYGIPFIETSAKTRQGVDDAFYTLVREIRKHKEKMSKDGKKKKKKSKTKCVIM

Compound	Kd ([1]; 1:1 binding model) [nM]	IC50 [2] [nM]	NRAS /KRAS [3, 5]	HRAS /KRAS [4, 6]	Kd ([1]; Single Cycle Kinetics) [nM]	Kd [1, 7] [nM]	NRAS /KRAS [3, 8]	HRAS /KRAS [4, 9]
CCO[C@@H]1C[C@H]2C(=O)NC3(CC(C)(C)C3)C(=O)N(C)[C@@H](C3CCCC3)C(=O)N(C)[C@H](C(=O)N(C)C)CC(=O)N(C)[C@@H]([C@H](C)OC)C(=O)N[C@@H]([C@@H](C)CC)C(=O)N3CCC[C@H]3C(=O)N(C)[C@H]3C/C=C\CCN(C3=O)[C@@H](Cc3ccc(C(F)(F)F)cc3)C(=O)N(C)CC(=O)N[C@@H](CCc3cc(F)c(C(F)(F)F)c(F)c3)C(=O)N2C1 [PP3181]	0.96	51	A (a compound having 10 or more and less than 20 is denoted as A)	B (a compound having 3 or more and less than 10 is denoted as B)	–	–	–	–
CCCCO[C@H]1CCN2C(=O)[C@H](CCc3cc(F)c(C(F)(F)F)c(F)c3)NC(=O)CN(C)C(=O)[C@H](Cc3ccc(C(F)(F)F)cc3)N3CCCCC[C@@H](C3=O)N(C)C(=O)CN(C)C(=O)[C@H]([C@@H](C)CC)NC(=O)[C@H](CC(C)C)N(C)C(=O)C[C@@H](C(=O)N3CCOCC3)N(C)C(=O)[C@H](C3CCCC3)N(C)C(=O)C3(CCC3)NC(=O)[C@H]12 [PP1009]	–	195	B (a compound having 3 or more and less than 10 is denoted as B)	B (a compound having 3 or more and less than 10 is denoted as B)	2	–	–	–
CCO[C@@H]1C[C@H]2C(=O)NC3(CC(C)(C)C3)C(=O)N(C)[C@@H](C(CC)CC)C(=O)N(C)[C@H](C(=O)N3CCCC3)CC(=O)N(C)[C@@H](COC)C(=O)N[C@@H]([C@@H](C)CC)C(=O)N(C)CC(=O)N(C)[C@H]3C/C=C\CCN(C3=O)[C@@H](Cc3ccc(C)cc3)C(=O)N(C)CC(=O)N[C@@H](CCc3cc(F)c(C(F)(F)F)c(F)c3)C(=O)N2C1 [PP2139]	–	38	–	–	–	0.38	AA (a compound having 20 or more is denoted as AA)	A (a compound having 10 or more and less than 20 is denoted as A)
CC[C@H](C)[C@@H]1NC(=O)[C@H](CC(C)C)N(C)C(=O)C[C@@H](C(=O)N(C)C)N(C)C(=O)[C@H](C2CCCC2)N(C)C(=O)C2(CCCC2)NC(=O)[C@@H]2CCCN2C(=O)[C@H](CCc2ccc(C(F)(F)F)c(Cl)c2)NC(=O)CN(C)C(=O)[C@H](Cc2ccc(C(F)(F)F)cc2)N2CC=CCOC[C@H](C2=O)N(C)C(=O)CN(C)C1=O [PP0628]	–	46.3	–	–	–	2.4	C (A compound having a KD ratio of 0.1 or more and less than 3 is denoted as C)	C (A compound having a KD ratio of 0.1 or more and less than 3 is denoted as C)
CCCN1C(=O)CN(C)C(=O)[C@@H]2CCN2C(=O)[C@H]([C@@H](C)CC)NC(=O)[C@H](CC(C)C)N(C)C(=O)C[C@@H](C(=O)N(C)C)N(C)C(=O)[C@H](C2CCCC2)N(C)C(=O)C2(CCCC2)NC(=O)[C@@H]2CCCN2C(=O)[C@H](CCc2ccc(C(F)(F)F)c(Cl)c2)NC(=O)CN(C)C(=O)[C@@H]1Cc1ccc(C(F)(F)F)cc1 [PP0429] ([NMeL]I[Aze][Sar][NPrPhe(4-CF3)][Sar][hPhe(3-Cl-4-CF3)]P[Ac5c][NMeGly(cPent)][NMeD]-NMe2; lactam N-11)	–	12.4	–	–	–	0.39	B (a compound having 3 or more and less than 10 is denoted as B)	C (A compound having a KD ratio of 0.1 or more and less than 3 is denoted as C)
CCO[C@@H]1C[C@H]2C(=O)NC3(CCC3)C(=O)N(C)[C@@H](C3CCCC3)C(=O)N(CCc3ccccc3)[C@H](C(=O)N3CCOCC3)CC(=O)N(C)[C@@H](CC(C)C)C(=O)N[C@@H]([C@@H](C)CC)C(=O)N(C)CC(=O)N(C)[C@H]3CCCCCN(C3=O)[C@@H](Cc3ccc(C(F)(F)F)cc3)C(=O)N(C)CC(=O)N[C@@H](CCc3cc(F)c(C(F)(F)F)c(F)c3)C(=O)N2C1 [PP0642]	–	2650	–	–	–	110	B (a compound having 3 or more and less than 10 is denoted as B)	B (a compound having 3 or more and less than 10 is denoted as B)
CCO[C@@H]1C[C@H]2C(=O)NC3(CC(C)(C)C3)C(=O)N(C)[C@@H](C3CCCC3)C(=O)N(C)[C@H](C(=O)N(C)CC)CC(=O)N(C)[C@@H](CC(C)C)C(=O)N[C@@H]([C@@H](C)CC)C(=O)N(C)CC(=O)N(C)[C@H]3C/C=C\CCN(C3=O)[C@@H](Cc3ccc(C(F)F)cc3)C(=O)N(C)CC(=O)N[C@@H](CCc3cc(F)c(C(F)F)c(OC)c3)C(=O)N2C1 [PP3147]	0.41	54.6	A (a compound having 10 or more and less than 20 is denoted as A)	A (a compound having 10 or more and less than 20 is denoted as A)	–	–	–	–
CCCN1C(=O)CN(C)C(=O)[C@@H]2CCN2C(=O)[C@H]([C@@H](C)CC)NC(=O)[C@H](CC(C)C)N(C)C(=O)C[C@@H](C(=O)N2CCOCC2)N(C)C(=O)[C@H](C2CCCC2)N(C)C(=O)C2(CCCC2)NC(=O)[C@@H]2CC3(CC3)CN2C(=O)[C@H](CCc2ccc(C(F)(F)F)c(Cl)c2)NC(=O)CN(C)C(=O)[C@@H]1Cc1ccc(C(F)(F)F)cc1 [PP0308] ([NMeL]I[Aze][Sar][NPrPhe(4-CF3)][Sar][hPhe(3-Cl-4-CF3)][Pro(4-spirocPr)][Ac5c][NMeGly(cPent)][NMeD]-Morpholide; lactam N-11)	1.1	56	B (a compound having 3 or more and less than 10 is denoted as B)	B (a compound having 3 or more and less than 10 is denoted as B)	–	–	–	–
CCC[C@H]1C(=O)N[C@@H]([C@@H](C)CC)C(=O)N(C2CC2)CC(=O)N(C)[C@H]2C/C=C\CCN(C2=O)[C@@H](Cc2ccc(C)cc2)C(=O)N(C)CC(=O)N[C@@H](CCc2ccc(C(F)(F)F)c(CC)c2)C(=O)N2C[C@H](OCC)C[C@H]2C(=O)NC2(CC(C)(C)C2)C(=O)N(C)[C@@H](C2CCCC2)C(=O)N(C)[C@H](C(=O)N(C)C)CC(=O)N1C [PP2870]	0.58	11.5	A (a compound having 10 or more and less than 20 is denoted as A)	A (a compound having 10 or more and less than 20 is denoted as A)	–	–	–	–
CCO[C@@H]1C[C@H]2C(=O)NC3(CC(C)(C)C3)C(=O)N(C)[C@@H](C(CC)CC)C(=O)N(C)[C@H](C(=O)N(C)C)CC(=O)N(C)[C@@H](CC(C)C)C(=O)N[C@@H]([C@@H](C)CC)C(=O)N(C)CC(=O)N(C)[C@H]3C/C=C\CCN(C3=O)[C@@H](Cc3ccc(C)cc3)C(=O)N(C)CC(=O)N[C@@H](CCc3ccc(C(F)(F)F)c(Cl)c3)C(=O)N2C1 [PP2148]	–	41.5	–	–	–	0.34	A (a compound having 10 or more and less than 20 is denoted as A)	A (a compound having 10 or more and less than 20 is denoted as A)
CCO[C@@H]1C[C@H]2C(=O)NC3(CCC3)C(=O)N(C)[C@@H](C3CCCC3)C(=O)N(C)[C@H](C(=O)N3CCOCC3)CC(=O)N(C)[C@@H](Cc3ccccc3)C(=O)N[C@@H]([C@@H](C)CC)C(=O)N(C)CC(=O)N(C)[C@H]3CCCCCN(C3=O)[C@@H](Cc3ccc(C(F)(F)F)cc3)C(=O)N(C)CC(=O)N[C@@H](CCc3cc(F)c(C(F)(F)F)c(F)c3)C(=O)N2C1 [PP0687]	–	44.1	–	–	–	0.64	B (a compound having 3 or more and less than 10 is denoted as B)	B (a compound having 3 or more and less than 10 is denoted as B)
